Measurements as given in the CheMixHub viscosity set.

Test: xn = mol fraction of the nth substance listed

Nc1ccccc1 + CC(=O)O
viscosity [mPa·s]
Details	298.15 K	308.15 K	323.15 K
101.3 kPa, x1 = 0.0382	2.15	1.72	1.27
101.3 kPa, x1 = 0.0652	3.65	2.72	1.83
101.3 kPa, x1 = 0.0972	5.78	4.07	2.51
101.3 kPa, x1 = 0.132	8.79	5.69	3.26
101.3 kPa, x1 = 0.186	14.2	8.51	4.27
101.3 kPa, x1 = 0.229	18.5	10.5	5.14
101.3 kPa, x1 = 0.257	20.3	11.4	5.4
101.3 kPa, x1 = 0.286	20.8	11.6	5.52
101.3 kPa, x1 = 0.3	21.2	11.8	5.58
101.3 kPa, x1 = 0.333	20.5	11.6	5.43
101.3 kPa, x1 = 0.35	20.1	11.1	5.33
101.3 kPa, x1 = 0.377	19	10.7	5.16
101.3 kPa, x1 = 0.425	15.9	9.01	4.61
101.3 kPa, x1 = 0.497	13.5	7.7	4.03
101.3 kPa, x1 = 0.546	10.7	6.51	3.6
101.3 kPa, x1 = 0.675	6.68	4.48	–
101.3 kPa, x1 = 0.799	5.08	3.61	2.39
101.3 kPa, x1 = 0.86	4.57	3.3	2.25
101.33 kPa, x1 = 0.1058	7.29	–	2.96
101.33 kPa, x1 = 0.1746	12.3	–	–
101.33 kPa, x1 = 0.2824	21.9	–	5.65
101.33 kPa, x1 = 0.3086	21.4	–	5.58
101.33 kPa, x1 = 0.3408	20.3	–	5.23
101.33 kPa, x1 = 0.3878	18.1	–	–
101.33 kPa, x1 = 0.5159	11.8	–	3.82

Nc1ccccc1 + CC(C)(C)O
303 K, 101.33 kPa
Details	viscosity [mPa·s]
x1 = 0.1	2.851
x1 = 0.2	2.363
x1 = 0.3	2.307
x1 = 0.4	2.218
x1 = 0.5	2.257
x1 = 0.6	2.305
x1 = 0.7	2.407
x1 = 0.8	2.524
x1 = 0.9	2.766

CC(C)(C)O + CC(C)=O
viscosity [mPa·s], 101 kPa
Details	x1 = 0.0784	x1 = 0.1618	x1 = 0.2497	x1 = 0.3433	x1 = 0.4398	x1 = 0.5382	x1 = 0.6472	x1 = 0.7532	x1 = 0.8729
298.15 K	0.3321	0.3734	0.4146	0.4676	0.5414	0.6566	0.8929	1.304	2.131
303.15 K	0.324	0.3649	0.4058	0.4555	0.514	0.6108	0.8102	1.186	1.881
308.15 K	0.3158	0.3535	0.3941	0.4405	0.4928	0.583	0.7695	1.073	1.632

Nc1ccccc1 + CC(C)=O
298.15 K, 101 kPa
Details	viscosity [mPa·s]
x1 = 0.0833	0.3644
x1 = 0.1692	0.4238
x1 = 0.2591	0.5074
x1 = 0.3523	0.6194
x1 = 0.4492	0.7717
x1 = 0.5502	0.9752
x1 = 0.6556	1.252
x1 = 0.7653	1.679
x1 = 0.8805	2.259

CCC(O)CO (configuration not stated) + CC(C)CO
viscosity [mPa·s], 100 kPa
Details	x2 = 0.1	x2 = 0.201	x2 = 0.3	x2 = 0.4	x2 = 0.5	x2 = 0.6	x2 = 0.698	x2 = 0.8	x2 = 0.899
298.15 K	37.85	28.47	21.1	15.45	10.88	7.762	6.307	5.182	3.998
303.15 K	28.29	21.56	16.11	12.08	8.609	6.351	5.187	4.312	3.375
308.15 K	21.44	16.65	12.67	9.596	7.019	5.289	4.334	3.62	2.873
313.15 K	16.62	13.03	10.31	7.809	5.758	4.449	3.635	3.062	2.473
318.15 K	13.08	10.42	8.093	6.339	4.851	3.692	3.08	2.621	2.141
323.15 K	10.47	8.442	6.689	5.231	3.969	3.154	2.639	2.253	1.855

Nc1ccccc1 + CC(C)CO
303 K, 101.33 kPa
Details	viscosity [mPa·s]
x1 = 0.1	2.305
x1 = 0.2	2.138
x1 = 0.3	2.096
x1 = 0.4	2.047
x1 = 0.5	2.073
x1 = 0.6	2.172
x1 = 0.7	2.284
x1 = 0.8	2.366
x1 = 0.9	2.715

CCNCC + CC(C)O
viscosity [mPa·s], 100 kPa
Details	293.15 K	298.15 K	303.15 K	308.15 K	313.15 K	318.15 K	323.15 K
x1 = 0.0215	2.3	1.99	1.72	1.49	1.31	1.15	1.01
x1 = 0.0807	1.99	1.74	1.51	1.31	1.152	1.02	0.9
x1 = 0.1595	1.63	1.44	1.256	1.09	0.97	0.86	0.78
x1 = 0.2401	1.33	1.187	1.05	0.924	0.82	0.732	0.67
x1 = 0.3491	1.02	0.91	0.806	0.72	0.64	0.58	0.54
x1 = 0.4399	0.84	0.75	0.671	0.598	0.54	0.491	0.46
x1 = 0.5598	0.65	0.58	0.527	0.48	0.435	0.396	0.37
x1 = 0.6501	0.551	0.5	0.455	0.416	0.376	0.345	0.32
x1 = 0.7395	0.48	0.43	0.39	0.36	0.33	0.304	0.283
x1 = 0.8496	0.41	0.376	0.343	0.319	0.296	0.271	0.251
x1 = 0.94	0.36	0.336	0.315	0.293	0.274	0.257	0.243
x2 = 0.0137	0.33	0.314	0.298	0.282	0.267	0.251	0.238
